Where two headings read alike, the source gives them in different places.
Experiments:
[1] = system: telomere length in DC patient iPSCs; test: telomere length / telomere elongation in DC patient iPSCs; format: cell-based, human; conditions: for minimal effective concentration: Homo sapiens, iPSC, patient iPSCs, concentration class at which activity is seen, read-out: iPSC-based Telomere length; for concentration at which telomere elongation was observed: DC patient iPSCs, after 3-4 weeks of cell culture
Experimental: (§1) Compound 266A had activity ˜2-logs higher in the in vitro RNA oligoadenylation assay compared to the parental compound cmpd. 1, approximating the activity of RG7834 (FIG. 7). […] 1. Compounds 295A and 296A had activity 2-3 logs higher in DC patient iPSCs, showing TERC maturation at 1 nM, similar to RG7834 (FIG. 6). […] Referring to Table 1D, “+” refers to activity at 1 μM, “++” refers to activity above 1 nM and below 1 μM, and “+++” refers to activity at <1 nM, “ND” refers to not determined.

[2] = system: TERC 3′ end processing in primary CD34+ human hematopoietic stem and progenitor cells (HSPCs); test: TERC 3′ end processing (RACE) in CRISPR/Cas9-engineered PARN-deficient primary CD34+ HSPCs; format: cell-based; conditions: for TERC 3′ end processing by RACE at 1 μM: day 5 (FIG. 40A)
Excerpt: Example 167—Restoration of TERC 3′ end processing in primary CD34+ human hematopoietic stem and progenitor cells (HSPCs). To determine the efficacy of exemplified compounds in a disease-relevant stem cell population, we employed a highly-efficient CRISPR-Cas9 ribonucleoprotein transduction strategy to disrupt the PARN gene in primary human CD34+ hematopoietic stem and progenitor cells (HSPCs), or the control locus AAVS1. FIGS. 40A and 40B show extended TERC forms in CRISPR-Cas9 engineered HSPCs deficient in PARN.

[3] = target: T1, rPAPD5 (Homo sapiens, UniProt Q8NDF8); test: differential scanning fluorimetry (DSF) binding and stabilization of rPAPD5; conditions: for ΔTm at 1 µM: 1 μM test compound (Table 2a), read-out: ΔTm at 1 μM; for ΔTm at 100 µM: 100 μM test compound, read-out: ΔTm at 100 μM
T1 construct: made in house
T1 sequence (Q8NDF8 68-698 isoform Q8NDF8-5 limits assumed): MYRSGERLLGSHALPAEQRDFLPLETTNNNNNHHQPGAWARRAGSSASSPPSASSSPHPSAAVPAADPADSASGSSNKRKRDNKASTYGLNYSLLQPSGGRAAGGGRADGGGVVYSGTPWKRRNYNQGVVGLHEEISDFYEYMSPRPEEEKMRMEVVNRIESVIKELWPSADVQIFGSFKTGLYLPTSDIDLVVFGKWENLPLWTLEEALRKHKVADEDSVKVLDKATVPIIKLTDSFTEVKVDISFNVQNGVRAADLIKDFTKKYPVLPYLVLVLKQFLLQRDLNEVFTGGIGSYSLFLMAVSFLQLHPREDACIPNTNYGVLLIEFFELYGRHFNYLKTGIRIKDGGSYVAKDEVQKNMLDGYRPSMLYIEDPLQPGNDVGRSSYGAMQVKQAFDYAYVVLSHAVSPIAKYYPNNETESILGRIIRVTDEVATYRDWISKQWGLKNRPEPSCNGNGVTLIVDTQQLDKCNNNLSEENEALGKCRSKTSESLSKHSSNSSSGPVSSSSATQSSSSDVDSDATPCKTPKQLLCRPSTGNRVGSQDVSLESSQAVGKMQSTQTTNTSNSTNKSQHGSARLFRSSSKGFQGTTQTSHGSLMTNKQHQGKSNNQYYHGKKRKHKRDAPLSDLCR
Procedure, shortened: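 Differential scanning fluorimetry was used to measure how test compounds bind and thermally stabilize rPAPD5. The reaction contained SYPRO orange dye diluted 1:5000 in […] of buffer with […], 25 mM Tris-HCl, 5 mM MgCl2 and 50 mM KCl. ΔTm was calculated relative to a DMSO control.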

[4] = system: TERC 3′ end processing in DC patient iPSCs; test: TERC 3′ end processing by RACE in DC patient / PARN-mutant iPSCs; format: cell-based, human; conditions: for minimal effective concentration: Homo sapiens, iPSC, patient iPSCs, concentration class at which activity is seen, read-out: iPSC-based RACE activity
Experimental: as §1

[5] = system: hepatitis B surface antigen (HBSAg) from HepG2.2.15 cells, a hepatitis B virus-expressing cell line; test: HBsAg ELISA in supernatant of HepG2.2.15 cells; format: cell-based; conditions: HepG2.2.15, 96 h
Experimental: HepG2.2.15 cells, a hepatitis B virus-expressing cell line (Sells, M. A. et al., PNAS, 1987), were plated at 50,000 cells/well in DMEM/F12 media (Gibco) with 10% fetal bovine serum (Omega Scientific) in a 24-well or 96-well plate (Corning), in 2-3 replicates for each test compound/concentration plus controls, and incubated in a humidified 5% CO2 chamber at 37° C. The next day, media was aspirated, cells were washed once with phosphate buffered saline, pH7.4 (Gibco), and 1 mL DMEM/12 media was replaced. Test compounds were added in 3-fold dilutions from up to 100 μM down to 333 pM, with vehicle (dimethylsulfoxide (Sigma)) as a control. After four days of culture in a humidified 5% CO2 chamber at 37° C., plates were spun down in a centrifuge at 300 g for 10 minutes at room temperature. Supernatant from each well was collected and either frozen at −20° C. or used directly for quantitation of hepatitis B surface antigen (HBSAg) in an enzyme-linked immunosorbent assay (ELISA). The supernatant was tested using the HBSAg ELISA kit (Abnova Cat. No KA0286) per the manufacturer's instructions. Results of replicates were averaged and nonlinear curve fitting was used to determine the half maximal inhibitory concentration (IC50) for each test compound.

[6] = 10 μM test compound (Table 2a), read-out: ΔTm at 10 μM
[7] = 10 μM test compound, shift vs DMSO control, read-out: ΔTm (Table 2, starred: the compound was tested at 10 μM)

SMILES	minimal effective concentration [1] [µM]	TERC 3′ end processing by RACE at 1 μM [2]	ΔTm at 1 µM [3] [°C]	ΔTm at 10 µM [3, 6] [°C]	ΔTm at 100 µM ([3]; shift vs DMSO control) [°C]	minimal effective concentration [4] [µM]	IC50 [5] [nM]	concentration at which telomere elongation was observed [1] [nM]	concentration showing maturation of TERC 3′ end processing by RACE ([4]; DC patient iPSCs) [nM]	activity in DC patient iPSCs (TERC maturation) relative to cmpd. 1 ([4]; DC patient iPSCs, higher / more potent than cmpd. 1)	TERC 3′ end processing by RACE at 100 nM ([2]; 100 nM, day 5 (FIG. 40B))	ΔTm at 10 µM [3, 7] [°C]
O=C(O)c1cc(Cl)ccc1Nc1c(S(=O)(=O)N2CCSCC2)cnc2c(F)cc(Cl)cc12 [Compound 421A, 5-chloro-2-[(6-chloro-8-fluoro-3-thiomorpholinosulfonyl-4-quinolyl)amino]benzoic acid]	< 0.001	maturation of TERC 3′ end processing	> 5	> 5	> 5	< 0.001						
COc1cc(Cl)cc2c(Nc3ccc(Cl)cc3C(=O)O)c(S(=O)(=O)N3CCSCC3)cnc12 [Compound 418A, 5-chloro-2-[(6-chloro-8-methoxy-3-thiomorpholinosulfonyl-4-quinolyl)amino]benzoic acid]	< 0.001		> 5	> 5	> 5	< 0.001	112					
Cl.O=C(O)c1cc(Cl)ccc1Nc1c(-c2ncco2)cnc2ccc(Cl)cc12 [Compound 295A, 5-chloro-2-[(6-chloro-3-oxazol-2-yl-4-quinolyl)amino]benzoic acid]					> 5		318	1	1			
O=C(O)c1cc(Cl)ccc1Nc1c(S(=O)(=O)N2CCOCC2)cnc2ccc(Cl)cc12 [Compound 266A, 5-chloro-2-[(6-chloro-3-morpholinosulfonyl-4-quinolyl)amino]benzoic acid]					> 5		102	10		1-2 logs		
O=C(O)c1cc(Cl)ccc1Nc1c(S(=O)(=O)N2CCSCC2)cnc2ccc(Cl)cc12 [Compound 349A, 5-chloro-2-[(6-chloro-3-thiomorpholinosulfonyl-4-quinolyl)amino]benzoic acid]	< 0.001		> 5	> 5	> 5	0.001 to 1	160					
O=C(O)c1cc(Cl)ccc1Nc1c(C2CCC(=NO)CC2)cnc2ccc(Cl)cc12 (stereo not drawn) [Compound 396A, 5-chloro-2-[[6-chloro-3-(4-hydroxyiminocyclohexyl)-4-quinolyl]amino]benzoic acid]	< 0.001	maturation of TERC 3′ end processing	< 1	> 5	> 5	< 0.001					maturation of TERC 3′ end processing	
O=C(O)c1cc(Cl)ccc1Nc1c(-c2cnco2)cnc2ccc(Cl)cc12 [Compound 353A, 5-chloro-2-[(6-chloro-3-oxazol-5-yl-4-quinolyl)amino]benzoic acid]	< 0.001		1 to 5	> 5	> 5	0.001 to 1	438					
O=C(O)c1cc(Cl)ccc1Nc1c(-c2ccncc2)cnc2ccc(Cl)cc12 [Compound 391A, 5-chloro-2-[[6-chloro-3-(4-pyridyl)-4-quinolyl]amino]benzoic acid]	< 0.001		1 to 5	> 5	> 5	0.001 to 1	735					
O=C(O)c1cc(Cl)ccc1Nc1c(S(=O)(=O)N2CCC(F)(F)CC2)cnc2ccc(Cl)cc12 [Compound 345A, 5-chloro-2-[[6-chloro-3-[(4,4-difluoro-1-piperidyl)sulfonyl]-4-quinolyl]amino]benzoic acid]	< 0.001		> 5	> 5	> 5	0.001 to 1	523					
O=C(O)c1cc(Cl)ccc1Nc1c(S(=O)(=O)N2CCSCC2)cnc2cc(Br)c(Cl)cc12 [Compound 416A, 2-[(7-bromo-6-chloro-3-thiomorpholinosulfonyl-4-quinolyl)amino]-5-chloro-benzoic acid]	< 0.001		> 5	> 5		< 0.001						> 5
CN1CCN(c2cnc3ccc(Cl)cc3c2Nc2ccc(Cl)cc2C(=O)O)CC1 [Compound 361A, 5-chloro-2-[[6-chloro-3-(4-methylpiperazin-1-yl)-4-quinolyl]amino]benzoic acid]	< 0.001		> 5	> 5	> 5	0.001 to 1	311					
O=C(O)c1cc(Cl)ccc1Nc1c(C2=CCSCC2)cnc2ccc(Cl)cc12 [Compound 342A, 5-chloro-2-[[6-chloro-3-(3,6-dihydro-2H-thiopyran-4-yl)-4-quinolyl]amino]benzoic acid]	< 0.001		> 5	> 5		< 0.001	821					> 5
O=C(O)c1cc(Cl)ccc1Nc1c(S(=O)(=O)N2CCSCC2)cnc2c(C(F)(F)F)cc(Cl)cc12 [Compound 419A, 5-chloro-2-[[6-chloro-3-thiomorpholinosulfonyl-8-(trifluoromethyl)-4-quinolyl]amino]benzoic acid]	< 0.001		> 5	> 5	< 1	< 0.001						
O=C1CCN(c2cnc3ccc(Cl)cc3c2Nc2ccc(Cl)cc2C(=O)O)CC1 [Compound 395A, 5-chloro-2-[[6-chloro-3-(4-oxo-1-piperidyl)-4-quinolyl]amino]benzoic acid]	< 0.001		> 5	> 5	> 5	1						
O=C(O)c1cc(Cl)ccc1Nc1c(C2CCC(F)(F)CC2)cnc2ccc(Cl)cc12 [Compound 343A, 5-chloro-2-[[6-chloro-3-(4,4-difluorocyclohexyl)-4-quinolyl]amino]benzoic acid]	< 0.001		> 5	> 5		< 0.001	86					> 5

Source: patent US20250026769A1, “PAPD5 INHIBITORS AND METHODS OF USE THEREOF” (The Children's Medical Center Corporation, priority 2021, published 2025)
